According to patent US20240218022A1, “ANTI-VISTA MACROCYCLIC PEPTIDES AND COMPOSITIONS” (BRISTOL-MYERS SQUIBB COMPANY, priority 2022, published 2024):
Positions of bridges follow the written chain, without caps; N, C: chain ends. Non-standard residues stand in square brackets, D forms with d. Residues, ends and D or L forms follow the SMILES beside them. 2Nal = N[C@@H](Cc1ccc2ccccc2c1)C(=O)O; Ahp(2) = CCCCC[C@H](N)C(=O)O; NHexGly = CCCCCCNCC(=O)O; Nle = CCCC[C@H](N)C(=O)O; Orn = NCCC[C@H](N)C(=O)O

Target: T1, mouse VISTA (mVISTA) (Mus musculus, UniProt Q9D659)
T1 construct: expressed in transfected cells; host or cells: Human embryonic kidney 293T cells
T1 sequence (Q9D659 33-308): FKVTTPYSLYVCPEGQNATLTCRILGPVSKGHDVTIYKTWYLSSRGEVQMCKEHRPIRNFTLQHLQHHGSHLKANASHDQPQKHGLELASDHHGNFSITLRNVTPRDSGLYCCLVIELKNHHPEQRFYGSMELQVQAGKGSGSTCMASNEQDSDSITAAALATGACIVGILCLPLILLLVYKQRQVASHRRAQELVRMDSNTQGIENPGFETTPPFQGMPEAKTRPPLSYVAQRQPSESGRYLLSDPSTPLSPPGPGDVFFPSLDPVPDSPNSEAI
Assay: Cell-Based Binding High-Content Assay For mVISTA (HC CBA mVISTA)
Conditions: cell-based binding high-content assay, mVISTA; the 16th table; read-out: HC CBA mVISTA IC50
Description: Cell-Based Binding High-Content Assay For mVISTA
Human embryonic kidney 293T cells (293T) expressing mouse VISTA (mVISTA) were used for the assessment of compounds competing with the binding of a biotinylated peptide. Cryopreserved cells were thawed in a 37° C. water bath and incubated overnight at a 37° C./5% CO2 incubator in assay culture media DMEM (Life Technologies Inc. Cat. No. 11995-126) supplemented with 10% (v/v) FBS (Sigma, Cat. No. F4135), 1× Penicillin/Streptomycin (Life Technologies Inc. Cat. No. 15140-122). Cells were harvested, washed and resuspended in DMEM media […]. To test compounds under “no-wash” condition, cells were seeded into PDL-coated 384 well plates (Corning, Cat. No. 356663) at 4,000 cells/20 μL. After incubating the cell plates for two hours at a 37° C./5% CO2 incubator, 125 nL of test compound was added using an ECHO. Alternatively, to test compounds under “wash” condition, test compounds were added first, followed by addition of 20 μL cells at a density of 4000 cells/well. After incubation for an hour, the media was removed, followed by addition of 20 μL of fresh media ( ), and plates were then incubated for another hour. To plates either under “no wash” or “wash” condition, the biotinylated peptide was added to a final concentration of 2 nM, and plates were incubated at room temperature for 30 minutes. Fifteen (15) μL of Alexa 647 conjugated Streptavidin (Life Tech, Cat. No. S21374), suspended at 2 μg/ml in media, was added to the assay plate and incubate for 30 minutes. Cells were fixed by adding 15 μL of formaldehyde at a final concentration of 8% (w/v) (Sigma Cat. No. 252549), 20 μg/mL Hoechst (Thermo Scientific Cat. No. 62249) in PBS for 10 minutes at room temperature. The plates were washed 3 times in dPBS, sealed, and read on a CellInsight NXT High Content Screening Platform IC903000 (Thermo Scientific). The 50% effective concentration (IC50) was calculated using the four-parameter logistic formula y=A+((B−A)/(1+((C/x)^D))), where A and B denote minimal and maximal % inhibition, respectively, C is the EC50, D is hill slope and x represent compound concentration.

Row | Structure (SMILES) | IC50
1 | CCCCCCN1CC(=O)N[C@@H](Cc2ccc(O)cc2)C(=O)N[C@@H](CC(C)C)C(=O)N[C@@H](CC(=O)O)C(=O)N[C@@H](CCCNC(=N)N)C(=O)N[C@@H](CC(C)C)C(=O)N[C@@H](CCCCC)C(=O)N2CCC[C@H]2C(=O)N[C@@H](C(C)C)C(=O)N[C@@H](CC(=O)O)C(=O)N[C@H](C(=O)NCC(=O)O)CSCC(=O)N[C@@H](Cc2ccc3ccccc3c2)C(=O)N[C@@H](Cc2ccc(O)cc2)C(=O)N[C@@H](CC(=O)O)C1=O [Ex 1278] ({CH2CO}-[2Nal]YD[NHexGly]YLDRL[Ahp(2)]PVDCG-OH; thioether N-14) | 24 nM
2 | CCCCCCN1CC(=O)N[C@@H](Cc2ccc(O)cc2)C(=O)N[C@@H](CCCCC)C(=O)N[C@@H](CC(=O)O)C(=O)N[C@@H](CCCNC(=N)N)C(=O)N[C@@H](CC(C)C)C(=O)N[C@@H](CCCCC)C(=O)N2CCC[C@H]2C(=O)N[C@@H](C(C)C)C(=O)N[C@@H](CC(=O)O)C(=O)N[C@H](C(=O)NCC(N)=O)CSCC(=O)N[C@@H](Cc2ccc3ccccc3c2)C(=O)N[C@@H](Cc2ccc(O)cc2)C(=O)N[C@@H](CC(=O)O)C1=O [Ex 1279] ({CH2CO}-[2Nal]YD[NHexGly]Y[Ahp(2)]DRL[Ahp(2)]PVDCG-NH2; thioether N-14) | 26.6 nM
3 | CCCCCCN1CC(=O)N[C@@H](Cc2ccc(O)cc2)C(=O)N[C@@H](C(C)C)C(=O)NCC(=O)N[C@@H](CCCNC(=N)N)C(=O)N[C@@H](CC(C)C)C(=O)N[C@@H](CCCCC)C(=O)N2CCC[C@H]2C(=O)N[C@@H](C(C)C)C(=O)N[C@@H](CC(=O)O)C(=O)N[C@H](C(=O)NCC(=O)O)CSCC(=O)N[C@@H](Cc2ccc3ccccc3c2)C(=O)N[C@@H](Cc2ccc(O)cc2)C(=O)N[C@@H](CC(=O)O)C1=O [Ex 1280] ({CH2CO}-[2Nal]YD[NHexGly]YVGRL[Ahp(2)]PVDCG-OH; thioether N-14) | 33.7 nM
4 | CCCCCCN1CC(=O)N[C@@H](Cc2ccc(O)cc2)C(=O)N[C@@H](CC(C)C)C(=O)NCC(=O)N[C@@H](CCCNC(=N)N)C(=O)N[C@@H](CC(C)C)C(=O)N[C@@H](CCCCC)C(=O)N2CCC[C@H]2C(=O)N[C@@H](C(C)C)C(=O)N[C@@H](CC(=O)O)C(=O)N[C@H](C(=O)NCC(N)=O)CSCC(=O)N[C@@H](Cc2ccc3ccccc3c2)C(=O)N[C@@H](Cc2ccc(O)cc2)C(=O)N[C@@H](CC(=O)O)C1=O [Ex 1281] ({CH2CO}-[2Nal]YD[NHexGly]YLGRL[Ahp(2)]PVDCG-NH2; thioether N-14) | 22.9 nM
5 | CCCCCCN1CC(=O)N[C@@H](Cc2ccc(O)cc2)C(=O)N[C@@H](CC(C)C)C(=O)NCC(=O)N[C@@H](CCCNC(=N)N)C(=O)N[C@@H](CC(C)C)C(=O)N[C@@H](CCCCC)C(=O)N2CCC[C@H]2C(=O)N[C@@H](C(C)C)C(=O)N[C@@H](CC(=O)O)C(=O)N[C@H](C(=O)NCC(=O)O)CSCC(=O)N[C@@H](Cc2ccc3ccccc3c2)C(=O)N[C@@H](Cc2ccc(O)cc2)C(=O)N[C@@H](CC(=O)O)C1=O [Ex 1282] ({CH2CO}-[2Nal]YD[NHexGly]YLGRL[Ahp(2)]PVDCG-OH; thioether N-14) | 11.7 nM
6 | CCCCCCN1CC(=O)N[C@@H](Cc2ccc(O)cc2)C(=O)N[C@@H](C(C)C)C(=O)NCC(=O)N[C@@H](CCCNC(=N)N)C(=O)N[C@@H](CC(C)C)C(=O)N[C@@H](CCCCC)C(=O)N2CCC[C@H]2C(=O)N[C@@H](C(C)C)C(=O)N[C@@H](CC(=O)O)C(=O)N[C@H](C(=O)NCC(N)=O)CSCC(=O)N[C@@H](Cc2ccc3ccccc3c2)C(=O)N[C@@H](Cc2ccc(O)cc2)C(=O)N[C@@H](CC(=O)O)C1=O [Ex 1283] ({CH2CO}-[2Nal]YD[NHexGly]YVGRL[Ahp(2)]PVDCG-NH2; thioether N-14) | 18.9 nM
7 | CCCCCCN1CC(=O)N[C@@H](Cc2ccc(O)cc2)C(=O)N[C@@H](CCCC)C(=O)NCC(=O)N[C@@H](CCCNC(=N)N)C(=O)N[C@@H](CC(C)C)C(=O)N[C@@H](CCCCC)C(=O)N2CCC[C@H]2C(=O)N[C@@H](C(C)C)C(=O)N[C@@H](CC(=O)O)C(=O)N[C@H](C(=O)NCC(N)=O)CSCC(=O)N[C@@H](Cc2ccc3ccccc3c2)C(=O)N[C@@H](Cc2ccc(O)cc2)C(=O)N[C@@H](CC(=O)O)C1=O [Ex 1284] ({CH2CO}-[2Nal]YD[NHexGly]Y[Nle]GRL[Ahp(2)]PVDCG-NH2; thioether N-14) | 3.6 nM
8 | CCCCCCN1CC(=O)N[C@@H](Cc2ccc(O)cc2)C(=O)N[C@@H](CCCC)C(=O)NCC(=O)N[C@@H](CCCNC(=N)N)C(=O)N[C@@H](CC(C)C)C(=O)N[C@@H](CCCCC)C(=O)N2CCC[C@H]2C(=O)N[C@@H](C(C)C)C(=O)N[C@@H](CC(=O)O)C(=O)N[C@H](C(=O)NCC(=O)O)CSCC(=O)N[C@@H](Cc2ccc3ccccc3c2)C(=O)N[C@@H](Cc2ccc(O)cc2)C(=O)N[C@@H](CC(=O)O)C1=O [Ex 1285] ({CH2CO}-[2Nal]YD[NHexGly]Y[Nle]GRL[Ahp(2)]PVDCG-OH; thioether N-14) | 8.3 nM
9 | CCCCCCN1CC(=O)N[C@@H](Cc2ccc(O)cc2)C(=O)N[C@@H](CC(C)C)C(=O)NCC(=O)N[C@@H](CCCNC(=N)N)C(=O)N[C@@H](CC(C)C)C(=O)N[C@@H](CCCCC)C(=O)N2CCC[C@H]2C(=O)N[C@@H](C(C)C)C(=O)N[C@@H](CCC(=O)O)C(=O)N[C@H](C(=O)NCC(N)=O)CSCC(=O)N[C@@H](Cc2ccc3ccccc3c2)C(=O)N[C@@H](Cc2ccc(O)cc2)C(=O)N[C@@H](CC(=O)O)C1=O [Ex 1286] ({CH2CO}-[2Nal]YD[NHexGly]YLGRL[Ahp(2)]PVECG-NH2; thioether N-14) | 39.2 nM
10 | CCCCCCN1CC(=O)N[C@@H](Cc2ccc(O)cc2)C(=O)N[C@@H](CCCC)C(=O)NCC(=O)N[C@@H](CCCNC(=N)N)C(=O)N[C@@H](CC(C)C)C(=O)N[C@@H](CCCCC)C(=O)N2CCC[C@H]2C(=O)N[C@@H](C(C)C)C(=O)N[C@@H](CCC(=O)O)C(=O)N[C@H](C(=O)NCC(N)=O)CSCC(=O)N[C@@H](Cc2ccc3ccccc3c2)C(=O)N[C@@H](Cc2ccc(O)cc2)C(=O)N[C@@H](CC(=O)O)C1=O [Ex 1287] ({CH2CO}-[2Nal]YD[NHexGly]Y[Nle]GRL[Ahp(2)]PVECG-NH2; thioether N-14) | 42.7 nM
11 | CCCCCCN1CC(=O)N[C@@H](Cc2ccc(O)cc2)C(=O)N[C@@H](CCCCN)C(=O)NCC(=O)N[C@@H](CCCN)C(=O)N[C@@H](CC(C)C)C(=O)N[C@@H](CCCCC)C(=O)N2CCC[C@H]2C(=O)N[C@@H](C(C)C)C(=O)N[C@@H](CO)C(=O)N[C@H](C(=O)NCC(=O)O)CSCC(=O)N[C@@H](Cc2ccc3ccccc3c2)C(=O)N[C@@H](Cc2ccc(O)cc2)C(=O)N[C@@H](CC(=O)O)C1=O [Ex 1288] ({CH2CO}-[2Nal]YD[NHexGly]YKG[Orn]L[Ahp(2)]PVSCG-OH; thioether N-14) | 16.7 nM
12 | CCCCCCN1CC(=O)N[C@@H](Cc2ccc(O)cc2)C(=O)N[C@@H](CCCCN)C(=O)N[C@@H](CC(=O)O)C(=O)N[C@@H](CCCN)C(=O)N[C@@H](CC(C)C)C(=O)N[C@@H](CCCCC)C(=O)N2CCC[C@H]2C(=O)N[C@@H](C(C)C)C(=O)N[C@@H](CO)C(=O)N[C@H](C(=O)NCC(=O)O)CSCC(=O)N[C@@H](Cc2ccc3ccccc3c2)C(=O)N[C@@H](Cc2ccc(O)cc2)C(=O)N[C@@H](CC(=O)O)C1=O [Ex 1289] ({CH2CO}-[2Nal]YD[NHexGly]YKD[Orn]L[Ahp(2)]PVSCG-OH; thioether N-14) | 25.2 nM
